Each block holds one molecule with its values, some of them ahead of it. Peptide text beside a SMILES is read from it. * marks the point of attachment. X1 = CC(C)(O/N=C(\C(=O)N[C@@H]1C(=O)N2C(C(=O)[O-])=C(C[n+]3ccccc3)CS[C@H]12)c1csc(N)n1)C(=O)NCCCCCCN1C(=O)CC(*)C1=O
Legend:
PBPs of B. subtilis = assay: Gel‐based PBP affinity assay (Bocillin FL competition); assay type: binding; conditions: at the concentrations tested (0.016–250 µM)
Description: (§1) B. subtilis DSM 10 and E. faecalis ATCC 51 299 (equal to DSM 12 956) membrane protein fractions were extracted according to the protocol of Dean et al. with minor modifications.^[ [34] ^] From a growing overnight bacterial culture, 3 L of LB (Luria‐Bertani) medium or TSB (tryptic soy broth) were inoculated with B. subtilis DSM 10 and E. faecalis ATCC 51 299, respectively, to obtain an OD600 = 0.3. The cultures were grown to an OD600 = 0.6–0.8 while shaking at 37 °C and cells were harvested by centrifugation at 4000 g for 30 min at 4 °C. The resulting pellet was washed twice with pre‐cooled PBS and resuspended in 30 mL of ice‐cooled PBS. The suspension was sonicated on ice (10 cycles of 30 s at 50% power for B. subtilis; 12 cycles of 30 s at 80% power for E. faecalis; 2 min intervals between cycles) using an Omni Ruptor 4000 ultrasonic homogenizer (Omni International, Kennesaw, GA, USA). Afterwards, the suspension was centrifuged at 7000 g for 10 min at 4 °C. The clear supernatant was transferred into a 50 mL polypropylene tube and centrifuged in a Beckman Coulter centrifuge equipped with a JA‐20 fixed‐angle rotor (Beckman Coulter, Krefeld, Germany) at 50 000 g for 1 h at 4 °C. The resulting pellet was washed with ice‐cold PBS and centrifuged a second time. The pellet was resuspended in 2 mL PBS and aliquots were stored at −80 °C. The protein content was determined using Bradford reagent (VWR International, Darmstadt, Germany) and Pierce BCA (bicinchoninic acid) protein assay kits (Thermo Fisher Scientific, Waltham, MA, USA) for membrane fractions of B. subtilis and E. faecalis, respectively.
(§2) Each dilution was combined with B. subtilis (30 µg) or E. faecalis (15 µg) extracted membrane fractions. As reference samples, membrane fractions incubated with only PBS were prepared. Reaction mixtures were incubated for 20 min at 37 °C while shaking at 400 rpm. Next, Bocillin FL penicillin (Thermo Fisher Scientific, Waltham, MA, USA) was added to obtain a final concentration of 20 µM in the mixture. Samples were incubated for 30 min at 37 °C while shaking at 400 rpm. To denature the samples, 4× Laemmli sample buffer (Bio‐Rad Laboratories, Feldkirchen, Germany) was added, and the samples incubated for 10 min at 70 °C. Afterwards, the samples were centrifuged for 5 min at 13 000 rpm. Samples were separated by SDS‐PAGE using a 10% Tris‐glycine gel for 100 min at 180 V. The bands were visualized using a Typhoon FLA 9500 imager (GE Healthcare, Chicago, IL, USA) with excitation at 473 nm. The gel images were analyzed using ImageJ software. Brightness and contrast were adjusted to improve the signal‐to‐noise ratio and the background signal was subtracted over the whole image. Next, integrated density values of the gel bands were measured and Bocillin FL penicillin labeling of each PBP in antibiotic‐treated samples were set in proportion to the reference sample. IC50 values were calculated with GraphPad Prism software (version 8.0.1) using inhibitor versus normalized response variable slope and least‐squares fit. […] The mean was calculated using the IC50 values of at least two independent assays for each antibiotic.

E. faecalis ATCC 29212 = assay: microbe, parasite or virus in culture; assay type: cell-based; conditions: ATCC 29212, 20 h
Description: (§3) The minimum inhibitory concentration (MIC) of the β‐lactam–peptide conjugates was determined by broth microdilution as previously described.^[ [17] ^] Briefly, in cation‐adjusted MHB II medium, a twofold serial dilution of the compounds was prepared in 96‐well round‐bottom polystyrene or polypropylene microtiter plates with each well containing 50 µL. The plates were inoculated with 50 µL bacterial suspension and the final inoculum, in a total volume of 100 µL, contained 5 × 10^5 CFU mL^−1. The microplates were incubated for 20 h at 37 ± 1 °C. The lowest concentration preventing visible bacterial growth was considered the MIC value. For susceptibility testing of combinations of β‐lactamase‐inhibitors with either a β‐lactam antibiotic or a β‐lactam–peptide conjugate, fixed concentrations of the inhibitors according to the EUCAST (European Committee on Antimicrobial Susceptibility Testing) guidelines (clavulanic acid = 2 mg L^−1, avibactam = 4 mg L^−1) were used.

[1] = system: E. casseliflavus ATCC 700327; assay: microbe, parasite or virus in culture; assay type: cell-based; conditions: ATCC 700327, 20 h
Description: as §3

B. subtilis DSM 10 = assay: microbe, parasite or virus in culture; assay type: cell-based; conditions: DSM 10, 20 h
Description: as §3

A. bohemicus DSM 100419 = assay: MIC by broth microdilution; assay type: cell-based; conditions: median (n = 3)
Description: as §3

PBP2A = target: T1, PBP2A (Bacillus subtilis, UniProt P54488); assay: Gel‐based PBP affinity assay (Bocillin FL competition); assay type: binding; conditions: B. subtilis membrane fractions, competition with Bocillin FL penicillin; compared with parent β‐lactam
T1 construct: endogenous in cells; host or cells: B. subtilis DSM 10, extracted membrane protein fraction
T1 sequence (P54488 whole entry): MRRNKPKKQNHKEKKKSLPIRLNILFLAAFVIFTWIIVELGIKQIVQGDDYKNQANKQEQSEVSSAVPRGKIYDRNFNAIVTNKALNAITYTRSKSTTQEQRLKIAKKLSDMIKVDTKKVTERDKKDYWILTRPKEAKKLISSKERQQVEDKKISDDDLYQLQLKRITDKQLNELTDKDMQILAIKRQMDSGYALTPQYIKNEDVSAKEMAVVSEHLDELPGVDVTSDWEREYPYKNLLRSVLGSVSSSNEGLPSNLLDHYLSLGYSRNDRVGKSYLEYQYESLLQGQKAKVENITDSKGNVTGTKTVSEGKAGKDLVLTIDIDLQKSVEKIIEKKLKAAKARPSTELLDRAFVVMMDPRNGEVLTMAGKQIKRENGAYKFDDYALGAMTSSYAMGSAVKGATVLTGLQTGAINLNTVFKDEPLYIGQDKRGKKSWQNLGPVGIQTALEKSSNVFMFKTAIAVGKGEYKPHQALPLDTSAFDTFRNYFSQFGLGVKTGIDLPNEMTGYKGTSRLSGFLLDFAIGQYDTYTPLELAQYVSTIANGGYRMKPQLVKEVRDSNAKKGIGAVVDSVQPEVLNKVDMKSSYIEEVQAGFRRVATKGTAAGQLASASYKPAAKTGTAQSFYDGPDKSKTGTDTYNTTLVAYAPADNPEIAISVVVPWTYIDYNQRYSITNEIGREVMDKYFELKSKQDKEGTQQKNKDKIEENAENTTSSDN
Description: as §1, §2

PBP5 = assay: as above; assay type: binding; conditions: PBPs from vancomycin‐resistant E. faecalis; compared with parent; at concentrations considerably higher than MICs
Description: as §1, §2

[2] = system: K. pneumoniae Tü20‐036 (clinical isolate); assay: microbe, parasite or virus in culture; assay type: cell-based; conditions: Tü20‐036 (clinical isolate, 20 h)
Description: as §3

[3] = system: C. freundii Tü21‐052 (clinical isolate); assay: microbe, parasite or virus in culture; assay type: cell-based; conditions: 20 h
Description: as §3

[4] = system: E. coli Tü20‐025 (clinical isolate); assay: microbe, parasite or virus in culture; assay type: cell-based; conditions: Tü20‐025 (clinical isolate, 20 h)
Description: as §3

[5] = system: A. pittii Tü21‐041 (clinical isolate); assay: microbe, parasite or virus in culture; assay type: cell-based; conditions: 20 h
Description: as §3

binding to the PBPs of B. subtilis (PBPs of B. subtilis): not observed
MIC (E. faecalis ATCC 29212): > 64 µg/mL
MIC [1]: > 64 µg/mL
MIC (B. subtilis DSM 10): > 64 µg/mL
SMILES: N=C(N)NCCC[C@H](NC(=O)[C@H](CCCNC(=N)N)NC(=O)[C@H](CCCNC(=N)N)NC(=O)[C@H](CCCNC(=N)N)NC(=O)[C@H](CCCNC(=N)N)NC(=O)[C@@H](N)CCCNC(=N)N)C(=O)N[C@@H](CS)C(N)=O [R6C]

SMILES: CC(C)(O/N=C(\C(=O)N[C@@H]1C(=O)N2C(C(=O)[O-])=C(C[n+]3ccccc3)CS[C@H]12)c1csc(N)n1)C(=O)NCCCCCCN1C(=O)CC(SC[C@H](NC(=O)[C@H](CCCCN)NC(=O)[C@H](CCCCN)NC(=O)[C@H](CCCCN)NC(=O)[C@H](CCCCN)NC(=O)[C@H](CCCCN)NC(=O)[C@H](CCCCN)NC(=O)[C@H](CCCCN)NC(=O)[C@H](CCCCN)NC(=O)[C@@H](N)CCCCN)C(N)=O)C1=O (stereo partly drawn) [CTZ-K9] (H-KKKKKKKKKC(X1)-NH2; N-terminus and C-terminus assumed)
antimicrobial activity (rank among CTZ–peptide conjugates) (A. bohemicus DSM 100419): most potent conjugates

SMILES: C[C@H]1[C@H](NC(=O)/C(=N\OC(C)(C)C(=O)NCCCCCCN2C(=O)CC(SC[C@H](NC(=O)[C@H](CCCNC(=N)N)NC(=O)[C@H](CCCNC(=N)N)NC(=O)[C@H](CCCNC(=N)N)NC(=O)[C@H](CCCNC(=N)N)NC(=O)[C@H](CCCNC(=N)N)NC(=O)[C@@H](N)CCCNC(=N)N)C(N)=O)C2=O)c2csc(N)n2)C(=O)N1S(=O)(=O)O (stereo partly drawn) [AZT-R6]
affinity to PBP2A (PBP2A): higher affinity
binding to PBP5 (PBP5): slightly improved binding
MIC (B. subtilis DSM 10): 0.06 µg/mL

MIC [2]: >64 µg/mL
MIC [3]: >64 µg/mL
MIC (E. faecalis ATCC 29212): >64 µg/mL
MIC [1]: >64 µg/mL
MIC (B. subtilis DSM 10): >64 µg/mL
MIC [4]: >64 µg/mL
MIC [5]: >64 µg/mL
SMILES: N=C(N)NCCC[C@H](NC(=O)[C@H](CCCNC(=N)N)NC(=O)[C@H](CCCNC(=N)N)NC(=O)[C@H](CCCNC(=N)N)NC(=O)[C@H](CCCNC(=N)N)NC(=O)[C@@H](N)CCCNC(=N)N)C(=O)N[C@@H](CSC1CC(=O)N(CCCCCCN)C1=O)C(N)=O (stereo partly drawn) [BB linker‐R6]

Reference: article PMC11672299, “Conjugation of Polycationic Peptides Extends the Efficacy Spectrum of β‐Lactam Antibiotics” (Advanced Science, 2024)
